Holding throughout (test): Drought stress test on potted crop plants in greenhouse, spray application, efficacy from damage values
Format in all cases: in vivo

For one test, the system named is Brassica napus (BRSNS). As to conditions: spray at 600 l/ha water, averages from one to three trials. The protocol: (§1) Seeds of monocotyledonous and dicotyledonous crop plants were laid out in sandy loam in wood-fiber pots, covered with soil or sand and cultivated in a greenhouse under good growth conditions. The test plants were treated at the early leaf stage (BBCH10-BBCH13). To assure uniform water supply before commencement of stress, the potted plants were supplied with water by dam irrigation prior to substance application. The compounds according to the invention, formulated in the form of wettable powders (WP), were sprayed onto the green parts of the plants as an aqueous suspension at an equivalent water application rate of 600 l/ha with addition of 0.2% wetting agent (e.g. agrotin). Substance application was followed immediately by stress treatment of the plants. For this purpose, the pots were transferred into plastic inserts in order to prevent them from subsequently drying out too quickly. Drought stress was induced by gradual drying out under the following conditions: “Day”: 14 hours with illumination at 26° C. “Night”: 10 hours without illumination at 18° C. The duration of the respective stress phases was guided mainly by the state of the untreated, stressed control plants and thus varied from crop to crop. It was ended (by re-irrigating and transfer to a greenhouse with good growth conditions) as soon as irreversible damage was observed on the untreated, stressed control plants. In the case of dicotyledonous crops, for example oilseed rape and soya, the duration of the drought stress phase varied between 3 and 6 days, in the case of monocotyledonous crops, for example wheat, barley or corn, between 6 and 11 days. The end of the stress phase was followed by an approx. 5-7-day recovery phase, during which the plants were once again kept under good growth conditions in a greenhouse. In order to rule out any influence of the effects observed by any fungicidal or insecticidal action of the test compounds, it was additionally ensured that the tests proceeded without fungal infection or insect infestation. After the recovery phase had ended, the intensities of damage were analyzed in visual comparison to untreated, unstressed controls of the same age. The intensity of damage was first recorded as a percentage (100%=plants have died, 0%=like control plants). These values were then used to calculate the efficacy of the test compounds (=percentage reduction in the intensity of damage as a result of substance application) by the following formula: [formula] EF: efficacy (%) DVus: damage value of the untreated, stressed control DVts: damage value of the plants treated with test compound In each trial, 3 pots per crop and dosage were treated and evaluated; the resulting efficacies are thus averages. The values in tables A-1 to A-3 below are again averages from one to three independent trials. BRSNS=Brassica napus TRZAS=Triticum aestivum ZEAMX=Zea mays

Test [1] deals with Triticum aestivum (TRZAS). As to conditions: topical, percentage reduction in the intensity of damage, read-out: EF (TRZAS) efficacy; for pest or weed control at 250 g/ha: dosage 250 g/ha. The protocol: as §1
For the next test, the system named is Zea mays (ZEAMX). As to conditions: percentage reduction in the intensity of damage. As to the method: as §1

With `CC12CCC(C1)C(C)(C)C2(O)C#Cc1ccccc1F` (stereo not drawn) [I.1-1], the “EF (BRSNS): efficacy = percentage reduction in the intensity of damage as a result of substance application” value with Brassica napus (BRSNS) (dosage 25 g/ha) is above 5%. Further, the pest or weed control at 250 g/ha in test [1] is above 5%. Besides, in the test with Zea mays (ZEAMX) (dosage 250 g/ha), the “EF (ZEAMX) efficacy” value is reported as above 5%.

For the compound `CC(=O)Oc1ccccc1C#CC1(O)C2(C)CCC(C2)C1(C)C` (stereo not drawn) [I.1-79], the “EF (BRSNS): efficacy = percentage reduction in the intensity of damage as a result of substance application” value with Brassica napus (BRSNS) (dosage 250 g/ha) is on record as above 5%. In addition, in test [1], the pest or weed control at 250 g/ha is above 5%. Further, in the test on Zea mays (ZEAMX) (dosage 25 g/ha), the “EF (ZEAMX) efficacy” value is above 5%.

`COC(=O)c1ccccc1C#CC1(O)C2CC3CC(C2)CC1C3` (stereo not drawn) [I.19-30]: in the test with Brassica napus (BRSNS) (dosage 25 g/ha), the “EF (BRSNS): efficacy = percentage reduction in the intensity of damage as a result of substance application” value is listed as above 5%. The pest or weed control at 250 g/ha in test [1] was above 5%.

For the compound `COC(=O)c1ccccc1C#CC1(O)C2CCC(C2)C12CC2` (stereo not drawn) [I.29-26], the pest or weed control at 25 g/ha in test [1] (dosage 25 g/ha) was above 5%.

`CC12CCC(C1)C(C)(C)C2(O)C#Cc1ccccc1NS(C)(=O)=O` (stereo not drawn) [I.1-88]: in the test with Brassica napus (BRSNS) (dosage 250 g/ha), the “EF (BRSNS): efficacy = percentage reduction in the intensity of damage as a result of substance application” value is above 5%.

`COC(=O)c1cc(C)ccc1C#CC1(O)CC2CCC1C2` (stereo not drawn) [I.21-33]: in the test on Brassica napus (BRSNS) (dosage 250 g/ha), the “EF (BRSNS): efficacy = percentage reduction in the intensity of damage as a result of substance application” value was above 5%. Also, the pest or weed control at 250 g/ha in test [1] is above 5%. Also, the “EF (ZEAMX) efficacy” value with Zea mays (ZEAMX) (dosage 250 g/ha) is listed as above 5%.

Turning to `COC(=O)c1ccccc1C#CC1(O)C(C)CCC2C1C2(C)C` (stereo not drawn) [I.35-26], the pest or weed control at 250 g/ha in test [1] is above 5%. Moreover, the “EF (ZEAMX) efficacy” value with Zea mays (ZEAMX) (dosage 250 g/ha) is above 5%.

`CC12CCC(C1)C(C)(C)C2(O)C#Cc1ccccc1CC#N` (stereo not drawn) [I.1-74]: the “EF (BRSNS): efficacy = percentage reduction in the intensity of damage as a result of substance application” value with Brassica napus (BRSNS) (dosage 250 g/ha) is given as above 5%. In addition, the pest or weed control at 250 g/ha in test [1] is above 5%. Further, the “EF (ZEAMX) efficacy” value in the test on Zea mays (ZEAMX) (dosage 250 g/ha) is listed as above 5%.

Take `COC(=O)c1ccccc1C#CC1(O)C2(C)CCC(C2)C1(C)C` (stereo not drawn) [I.1-116]: the “EF (BRSNS): efficacy = percentage reduction in the intensity of damage as a result of substance application” value in the test on Brassica napus (BRSNS) (dosage 25 g/ha) is reported as above 5%. In test [1], the pest or weed control at 250 g/ha is above 5%. In the test on Zea mays (ZEAMX) (dosage 25 g/ha), the “EF (ZEAMX) efficacy” value was above 5%.

(Values after patent US20150315146A1, “USE OF SUBSTITUTED 1-(ARYL ETHYNYL)-, 1-(HETEROARYL ETHYNYL)-, 1-(HETEROCYCLYL ETHYNYL)- AND 1-(CYCLOALKENYLETHYNYL)-BICYCLOALKANOLS AS ACTIVE AGENTS AGAINST ABIOTIC PLANT STRESS” (BAYER CROPSCIENCE AG, priority 2012, published 2015).)
